According to ChEMBL document CHEMBL4765228, “Indole-like Trk receptor antagonists” (Eur J Med Chem, 2016):

Tests used:
[1] = target: MAP/microtubule affinity-regulating kinase 3 (Homo sapiens) (UniProt P27448); assay: Inhibition of human MARK3 assessed as residual activity at 0.1 uM relative to control
[2] = target: T1, Serine/threonine-protein kinase 3 (Homo sapiens) (UniProt Q13188); assay: Inhibition of human MST2 assessed as residual activity at 1 uM relative to control
T1 sequence (whole entry): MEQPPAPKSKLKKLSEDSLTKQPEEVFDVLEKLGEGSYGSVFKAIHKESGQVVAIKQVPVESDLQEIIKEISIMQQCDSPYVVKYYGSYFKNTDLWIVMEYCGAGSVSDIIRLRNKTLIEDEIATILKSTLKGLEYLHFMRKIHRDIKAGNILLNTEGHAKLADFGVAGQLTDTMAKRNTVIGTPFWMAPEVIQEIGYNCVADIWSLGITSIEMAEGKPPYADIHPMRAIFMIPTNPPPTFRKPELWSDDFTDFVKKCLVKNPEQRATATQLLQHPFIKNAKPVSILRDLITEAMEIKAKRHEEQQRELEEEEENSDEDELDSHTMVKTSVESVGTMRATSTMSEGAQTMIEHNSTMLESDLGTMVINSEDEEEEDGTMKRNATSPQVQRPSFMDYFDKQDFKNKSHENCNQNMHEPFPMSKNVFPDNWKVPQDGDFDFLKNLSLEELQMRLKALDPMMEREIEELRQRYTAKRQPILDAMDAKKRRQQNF

[3] = target: 5'-AMP-activated protein kinase catalytic subunit alpha-1 (Homo sapiens) (UniProt Q13131); assay: Inhibition of human AMPKalpha1 (1 to 550 residues assessed as residual activity at 1 uM relative to control
[4] = target: Casein kinase I isoform delta (Homo sapiens) (UniProt P48730); assay: Inhibition of human CK1-delta assessed as residual activity at 1 uM relative to control
[5] = target: Glycogen synthase kinase-3 beta (Homo sapiens) (UniProt P49841); assay: Inhibition of human GSK3-beta assessed as residual activity at 1 uM relative to control
[6] = target: Mitogen-activated protein kinase 8 (Homo sapiens) (UniProt P45983); assay: Inhibition of human JNK1 assessed as residual activity at 0.1 uM relative to control
[7] = target: Serine/threonine-protein kinase Nek6 (Homo sapiens) (UniProt Q9HC98); assay: Inhibition of human NEK6 assessed as residual activity at 0.1 uM relative to control
[8] = target: Serine/threonine-protein kinase pim-1 (Homo sapiens) (UniProt P11309); assay: Inhibition of human PIM1 assessed as residual activity at 1 uM relative to control
[9] = organism: Homo sapiens; assay: Inhibition of human PKA assessed as residual activity at 0.1 uM relative to control
[10] = organism: Homo sapiens; assay: Inhibition of human PKA assessed as residual activity at 1 uM relative to control
[11] = target: T2, Serine/threonine-protein kinase D1 (Homo sapiens) (UniProt Q15139); assay: Inhibition of human PKCmu assessed as residual activity at 0.1 uM relative to control
T2 sequence (whole entry): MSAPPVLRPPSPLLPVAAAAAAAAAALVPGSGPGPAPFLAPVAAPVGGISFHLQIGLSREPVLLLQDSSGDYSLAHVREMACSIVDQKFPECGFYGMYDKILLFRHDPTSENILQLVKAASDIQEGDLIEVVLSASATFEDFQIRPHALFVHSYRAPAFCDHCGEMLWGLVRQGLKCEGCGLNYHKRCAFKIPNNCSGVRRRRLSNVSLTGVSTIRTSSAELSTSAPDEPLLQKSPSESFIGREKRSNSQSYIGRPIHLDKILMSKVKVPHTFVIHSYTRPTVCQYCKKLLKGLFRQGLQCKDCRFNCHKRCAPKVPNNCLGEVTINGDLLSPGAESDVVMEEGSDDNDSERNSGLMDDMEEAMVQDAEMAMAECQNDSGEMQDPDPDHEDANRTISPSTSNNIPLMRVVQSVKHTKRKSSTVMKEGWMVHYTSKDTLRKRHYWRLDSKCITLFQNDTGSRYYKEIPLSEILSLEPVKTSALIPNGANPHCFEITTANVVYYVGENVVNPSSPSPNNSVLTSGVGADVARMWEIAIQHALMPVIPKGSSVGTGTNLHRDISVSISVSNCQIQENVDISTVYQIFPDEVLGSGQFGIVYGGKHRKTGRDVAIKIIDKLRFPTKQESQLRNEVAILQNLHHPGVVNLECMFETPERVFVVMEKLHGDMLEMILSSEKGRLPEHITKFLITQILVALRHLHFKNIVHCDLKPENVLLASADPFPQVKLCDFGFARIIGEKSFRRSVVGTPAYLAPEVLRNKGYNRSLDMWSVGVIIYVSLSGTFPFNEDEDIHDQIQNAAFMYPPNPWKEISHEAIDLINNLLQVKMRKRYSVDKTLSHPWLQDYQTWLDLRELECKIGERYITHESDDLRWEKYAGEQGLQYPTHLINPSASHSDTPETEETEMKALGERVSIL

[12] = target: T2, Serine/threonine-protein kinase D1 (Homo sapiens); assay: Inhibition of human PKCmu assessed as residual activity at 1 uM relative to control
[13] = target: Rho-associated protein kinase 2 (Homo sapiens) (UniProt O75116); assay: Inhibition of human ROCK2 assessed as residual activity at 0.1 uM relative to control
[14] = target: Rho-associated protein kinase 2 (Homo sapiens) (UniProt O75116); assay: Inhibition of human ROCK2 assessed as residual activity at 1 uM relative to control
[15] = target: T3, Serine/threonine-protein kinase TBK1 (Homo sapiens) (UniProt Q9UHD2); assay: Inhibition of human TBK1 assessed as residual activity at 1 uM relative to control
T3 sequence (whole entry): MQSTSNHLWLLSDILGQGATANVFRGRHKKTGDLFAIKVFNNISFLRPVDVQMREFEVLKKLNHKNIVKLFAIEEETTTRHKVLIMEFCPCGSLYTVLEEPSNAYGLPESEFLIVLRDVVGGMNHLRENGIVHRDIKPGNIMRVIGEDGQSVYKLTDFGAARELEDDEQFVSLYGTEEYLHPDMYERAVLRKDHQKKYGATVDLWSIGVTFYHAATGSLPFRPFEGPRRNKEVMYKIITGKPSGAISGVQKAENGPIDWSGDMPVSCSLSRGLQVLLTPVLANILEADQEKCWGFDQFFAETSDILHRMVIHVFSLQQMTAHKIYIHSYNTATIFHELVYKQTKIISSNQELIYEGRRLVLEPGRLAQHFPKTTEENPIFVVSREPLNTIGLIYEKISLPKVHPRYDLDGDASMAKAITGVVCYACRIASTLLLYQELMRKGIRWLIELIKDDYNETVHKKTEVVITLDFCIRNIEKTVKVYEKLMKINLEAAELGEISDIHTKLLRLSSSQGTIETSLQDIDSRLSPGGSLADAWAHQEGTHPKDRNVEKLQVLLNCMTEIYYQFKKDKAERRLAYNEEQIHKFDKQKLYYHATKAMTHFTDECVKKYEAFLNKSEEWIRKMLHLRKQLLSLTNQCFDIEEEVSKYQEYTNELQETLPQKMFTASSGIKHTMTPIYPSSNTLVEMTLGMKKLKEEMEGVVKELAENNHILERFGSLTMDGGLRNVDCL

Glycogen synthase kinase-3 beta (Homo sapiens), sequence (P49841 whole entry, looked up): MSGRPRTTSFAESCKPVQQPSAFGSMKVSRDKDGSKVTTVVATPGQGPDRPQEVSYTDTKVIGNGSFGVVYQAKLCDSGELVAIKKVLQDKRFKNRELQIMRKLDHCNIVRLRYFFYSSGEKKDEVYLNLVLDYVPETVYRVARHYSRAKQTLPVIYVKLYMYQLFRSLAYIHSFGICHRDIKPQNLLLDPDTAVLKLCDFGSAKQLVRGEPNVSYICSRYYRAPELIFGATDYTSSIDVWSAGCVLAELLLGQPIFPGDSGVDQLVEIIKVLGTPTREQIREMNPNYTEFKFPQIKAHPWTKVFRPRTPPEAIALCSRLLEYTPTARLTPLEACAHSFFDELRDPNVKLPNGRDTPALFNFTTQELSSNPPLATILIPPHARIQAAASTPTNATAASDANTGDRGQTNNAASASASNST
MAP/microtubule affinity-regulating kinase 3 (Homo sapiens), sequence (P27448 whole entry, looked up): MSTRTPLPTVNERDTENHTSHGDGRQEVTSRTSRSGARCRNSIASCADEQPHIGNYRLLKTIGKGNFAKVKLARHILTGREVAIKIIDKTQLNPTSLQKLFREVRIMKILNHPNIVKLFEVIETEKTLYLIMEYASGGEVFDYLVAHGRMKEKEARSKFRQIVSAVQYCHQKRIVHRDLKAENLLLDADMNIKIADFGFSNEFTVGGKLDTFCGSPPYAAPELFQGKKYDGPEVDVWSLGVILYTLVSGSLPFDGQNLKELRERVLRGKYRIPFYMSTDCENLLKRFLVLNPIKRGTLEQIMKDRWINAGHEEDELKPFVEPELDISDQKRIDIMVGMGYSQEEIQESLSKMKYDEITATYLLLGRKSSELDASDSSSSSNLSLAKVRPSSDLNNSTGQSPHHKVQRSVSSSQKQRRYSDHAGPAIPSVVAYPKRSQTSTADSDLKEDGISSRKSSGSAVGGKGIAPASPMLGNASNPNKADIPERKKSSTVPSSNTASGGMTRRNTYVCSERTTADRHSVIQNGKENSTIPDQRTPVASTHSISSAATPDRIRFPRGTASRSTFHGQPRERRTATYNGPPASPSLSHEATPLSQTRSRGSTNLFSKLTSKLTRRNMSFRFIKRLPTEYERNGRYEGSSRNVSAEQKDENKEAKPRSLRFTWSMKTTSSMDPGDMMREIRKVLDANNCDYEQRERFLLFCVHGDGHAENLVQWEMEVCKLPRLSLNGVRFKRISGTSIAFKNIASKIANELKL
Serine/threonine-protein kinase pim-1 (Homo sapiens), sequence (P11309 whole entry, looked up): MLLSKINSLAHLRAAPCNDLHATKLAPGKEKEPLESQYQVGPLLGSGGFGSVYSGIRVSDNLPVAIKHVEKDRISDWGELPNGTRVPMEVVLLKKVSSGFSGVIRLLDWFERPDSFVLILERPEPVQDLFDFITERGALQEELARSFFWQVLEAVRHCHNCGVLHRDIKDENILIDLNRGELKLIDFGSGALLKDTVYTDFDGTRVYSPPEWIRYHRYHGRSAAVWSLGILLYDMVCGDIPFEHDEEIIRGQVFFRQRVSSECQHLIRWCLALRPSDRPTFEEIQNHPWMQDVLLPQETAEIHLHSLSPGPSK
Rho-associated protein kinase 2 (Homo sapiens), sequence (O75116 whole entry, looked up): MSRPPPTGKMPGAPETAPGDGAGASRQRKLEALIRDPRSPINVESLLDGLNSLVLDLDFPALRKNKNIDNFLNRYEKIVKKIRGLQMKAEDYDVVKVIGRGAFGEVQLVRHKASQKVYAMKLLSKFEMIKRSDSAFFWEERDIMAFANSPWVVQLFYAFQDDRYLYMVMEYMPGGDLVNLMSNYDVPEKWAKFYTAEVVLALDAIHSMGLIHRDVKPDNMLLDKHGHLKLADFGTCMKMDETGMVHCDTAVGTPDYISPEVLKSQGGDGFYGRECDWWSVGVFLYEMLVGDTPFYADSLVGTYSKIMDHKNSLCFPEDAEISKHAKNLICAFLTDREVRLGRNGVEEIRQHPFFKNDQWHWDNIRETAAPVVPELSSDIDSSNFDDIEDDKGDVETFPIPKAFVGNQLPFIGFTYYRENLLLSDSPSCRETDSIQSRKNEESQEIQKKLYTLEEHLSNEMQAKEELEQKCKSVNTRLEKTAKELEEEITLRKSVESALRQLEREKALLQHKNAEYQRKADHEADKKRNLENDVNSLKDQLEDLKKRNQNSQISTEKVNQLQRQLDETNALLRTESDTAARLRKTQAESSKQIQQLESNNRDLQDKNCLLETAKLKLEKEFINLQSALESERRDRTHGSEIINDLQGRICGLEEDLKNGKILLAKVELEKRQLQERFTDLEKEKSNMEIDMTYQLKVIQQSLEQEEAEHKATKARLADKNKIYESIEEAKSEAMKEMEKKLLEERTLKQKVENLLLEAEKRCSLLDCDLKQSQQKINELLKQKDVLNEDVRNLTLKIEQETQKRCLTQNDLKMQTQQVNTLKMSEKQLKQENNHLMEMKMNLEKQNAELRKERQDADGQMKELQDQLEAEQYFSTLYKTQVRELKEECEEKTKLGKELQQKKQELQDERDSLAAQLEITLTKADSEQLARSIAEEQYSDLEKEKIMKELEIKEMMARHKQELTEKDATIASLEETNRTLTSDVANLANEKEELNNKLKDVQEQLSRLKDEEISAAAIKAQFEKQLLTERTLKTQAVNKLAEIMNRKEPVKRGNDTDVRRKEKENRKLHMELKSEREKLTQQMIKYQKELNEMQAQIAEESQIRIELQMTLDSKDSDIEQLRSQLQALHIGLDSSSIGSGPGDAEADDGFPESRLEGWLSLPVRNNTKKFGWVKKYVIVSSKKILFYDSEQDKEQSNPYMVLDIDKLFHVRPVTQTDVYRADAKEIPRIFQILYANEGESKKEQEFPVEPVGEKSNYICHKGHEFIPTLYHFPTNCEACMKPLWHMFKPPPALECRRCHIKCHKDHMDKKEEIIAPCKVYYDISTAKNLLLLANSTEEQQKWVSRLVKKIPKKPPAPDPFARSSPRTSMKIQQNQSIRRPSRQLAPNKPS
Casein kinase I isoform delta (Homo sapiens), sequence (P48730 whole entry, looked up, canonical isoform): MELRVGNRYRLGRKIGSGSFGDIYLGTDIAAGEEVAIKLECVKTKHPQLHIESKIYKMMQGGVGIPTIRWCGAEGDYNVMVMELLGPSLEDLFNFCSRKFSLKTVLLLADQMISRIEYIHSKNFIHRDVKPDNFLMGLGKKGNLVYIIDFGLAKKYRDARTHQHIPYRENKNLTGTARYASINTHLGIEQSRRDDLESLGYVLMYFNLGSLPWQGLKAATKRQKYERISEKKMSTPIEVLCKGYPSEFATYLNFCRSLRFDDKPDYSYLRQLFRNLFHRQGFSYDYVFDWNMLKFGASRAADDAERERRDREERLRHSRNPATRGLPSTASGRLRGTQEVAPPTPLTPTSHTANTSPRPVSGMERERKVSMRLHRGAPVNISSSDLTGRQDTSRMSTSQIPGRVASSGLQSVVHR
5'-AMP-activated protein kinase catalytic subunit alpha-1 (Homo sapiens), sequence (Q13131 whole entry, looked up, the tested form may be a part, canonical isoform): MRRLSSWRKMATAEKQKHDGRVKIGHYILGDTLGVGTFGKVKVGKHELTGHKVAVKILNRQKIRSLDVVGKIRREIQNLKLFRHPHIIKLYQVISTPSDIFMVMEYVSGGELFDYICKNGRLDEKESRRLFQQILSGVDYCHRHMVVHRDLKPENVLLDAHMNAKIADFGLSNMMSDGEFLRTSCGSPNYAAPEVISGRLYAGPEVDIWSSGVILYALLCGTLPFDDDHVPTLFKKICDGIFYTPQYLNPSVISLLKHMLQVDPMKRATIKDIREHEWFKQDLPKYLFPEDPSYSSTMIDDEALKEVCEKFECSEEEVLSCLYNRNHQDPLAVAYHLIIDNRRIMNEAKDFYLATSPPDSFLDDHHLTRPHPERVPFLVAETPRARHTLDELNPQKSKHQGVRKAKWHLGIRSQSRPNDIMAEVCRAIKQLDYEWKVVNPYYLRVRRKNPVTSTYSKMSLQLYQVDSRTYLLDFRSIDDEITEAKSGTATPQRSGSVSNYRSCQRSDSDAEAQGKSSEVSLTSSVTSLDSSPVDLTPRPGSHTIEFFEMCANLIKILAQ
Mitogen-activated protein kinase 8 (Homo sapiens), sequence (P45983 whole entry): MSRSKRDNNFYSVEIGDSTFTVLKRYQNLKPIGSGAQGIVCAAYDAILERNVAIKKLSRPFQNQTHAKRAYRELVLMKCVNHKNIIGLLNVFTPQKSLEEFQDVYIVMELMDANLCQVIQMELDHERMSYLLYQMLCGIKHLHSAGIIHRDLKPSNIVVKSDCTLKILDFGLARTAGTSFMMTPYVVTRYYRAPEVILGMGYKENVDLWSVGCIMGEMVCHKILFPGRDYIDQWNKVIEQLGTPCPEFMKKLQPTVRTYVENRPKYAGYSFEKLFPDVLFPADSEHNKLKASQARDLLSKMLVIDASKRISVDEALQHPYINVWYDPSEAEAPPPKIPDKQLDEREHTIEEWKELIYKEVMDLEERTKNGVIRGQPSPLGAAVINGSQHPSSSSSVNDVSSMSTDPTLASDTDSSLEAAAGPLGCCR
Serine/threonine-protein kinase Nek6 (Homo sapiens), sequence (Q9HC98 whole entry): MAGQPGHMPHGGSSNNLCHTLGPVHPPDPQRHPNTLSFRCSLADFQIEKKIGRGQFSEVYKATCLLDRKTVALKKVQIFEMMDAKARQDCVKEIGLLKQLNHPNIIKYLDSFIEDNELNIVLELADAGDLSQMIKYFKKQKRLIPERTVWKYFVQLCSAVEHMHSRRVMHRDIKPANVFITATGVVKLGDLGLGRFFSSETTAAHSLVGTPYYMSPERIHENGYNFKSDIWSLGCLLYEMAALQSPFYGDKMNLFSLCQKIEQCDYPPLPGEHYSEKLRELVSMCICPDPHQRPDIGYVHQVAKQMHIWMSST

Activity [1]	Activity [2]	Activity [3]	Activity [4]	Activity [5]	Activity [6]	Activity [7]	Activity [8]	Activity [9]	Activity [10]	Activity [11]	Activity [12]	Activity [13]	Activity [14]	Activity [15]	SMILES
96%	84%	89%	84%	83%	110%	106%	88%	91%	91%	90%	91%	99%	87%	55%	COc1ccc2c(c1)c(/C=C1\C(=O)Nc3ccc(S(N)(=O)=O)cc31)cn2C
103%	83%	87%	87%	92%	105%	104%	95%	94%	103%	99%	89%	79%	69%	81%	CN(C)S(=O)(=O)c1ccc2c(c1)/C(=C/c1cn(C)c3ccc(O)cc13)C(=O)N2
100%	77%	88%	91%	90%	103%	99%	88%	91%	83%	92%	93%	94%	79%	93%	CNS(=O)(=O)c1ccc2c(c1)/C(=C/c1cn(C)c3ccc(OC)cc13)C(=O)N2
101%	64%	72%	79%	79%	103%	117%	79%	88%	84%	95%	72%	101%	61%	62%	COc1ccc2[nH]cc(/C=C3\C(=O)Nc4ccc(S(N)(=O)=O)cc43)c2c1
93%	104%	91%	86%	97%	103%	100%	97%	91%	98%	89%	92%	92%	89%	79%	COc1ccc2c(c1)c(/C=C1\C(=O)Nc3ccc(S(=O)(=O)N(C)C)cc31)cn2C
93%	62%	56%	82%	92%	121%	111%	93%	94%	87%	95%	91%	76%	55%	58%	Cn1cc(/C=C2\C(=O)Nc3ccc(S(N)(=O)=O)cc32)c2ccccc21
